Measured values: ChEMBL document CHEMBL1201862, “PubChem BioAssay data set” (2004)
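Step 1: Grow cells in 96-well plates. Step 2: Expose to compound for 48 hours at 5 concentrations. Step 3: Interpolate endpoints linearly; if unreached, use highest concentration. GI50: concentration for 50% inhibition of growth.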 Activity calls are given as the source filed them. Cut-off read from the data, not from the text of the source: active = GI50 up to about 1.1 µM and inactive = higher.

Columns and labels:
Assay in all cases: DTP human tumour cell line panel, 48 h
[1] = system: A498
[2] = system: HOP-62
[3] = system: Hs-578T
[4] = system: IGROV-1
[5] = system: KM12
[6] = system: MOLT-4
[7] = system: NCI-H23
[8] = system: NCI-H522
[9] = system: OVCAR-4
[10] = system: OVCAR-5
[11] = system: OVCAR-8
[12] = system: SF-295
[13] = system: SK-MEL-5
[14] = system: SN12C
[15] = system: SNB-75
[16] = system: SW-620
[17] = system: TK-10
[18] = system: UACC-257
[19] = system: SK-OV-3
[20] = system: UACC-62

SMILES | GI50 [1] | GI50 [2] | GI50 [3] | GI50 [4] | GI50 [5] | GI50 [6] | GI50 [7] | GI50 [8] | GI50 [9] | GI50 [10] | GI50 [11] | GI50 [12] | GI50 [13] | GI50 [14] | GI50 [15] | GI50 [16] | GI50 [17] | GI50 [18] | GI50 [19] | GI50 [20]
O=C(Nc1cc2cc([N+](=O)[O-])ccc2oc1=O)c1cccs1 | > 100 µM (inactive) | 28.8 µM (inactive) | 30.8 µM (inactive) | 34.4 µM (inactive) | 24.5 µM (inactive) | 25.3 µM (inactive) | > 10 µM (inactive) | 24.5 µM (inactive) | 43.6 µM (inactive) | > 100 µM (inactive) | 34.2 µM (inactive) | 54.2 µM (inactive) | 16 µM (inactive) | 40.5 µM (inactive) | 2.78 µM (inactive) | 49.9 µM (inactive) | > 100 µM (inactive) | 75.2 µM (inactive) |  | 
COC(=O)c1c(O)ccc2c1c1cc3ccccc3c(O)c1n2Cc1ccccc1Cl | > 100 µM (inactive) | 26.1 µM (inactive) | 27.1 µM (inactive) | 19.4 µM (inactive) | 19.3 µM (inactive) | 16.6 µM (inactive) | 18.4 µM (inactive) | 8.26 µM (inactive) | 11.6 µM (inactive) | 34.9 µM (inactive) | 25.3 µM (inactive) | 18.8 µM (inactive) | 19.1 µM (inactive) | 32.7 µM (inactive) |  |  | 37.2 µM (inactive) | 47.5 µM (inactive) | 12.9 µM (inactive) | 23.4 µM (inactive)
CC(=O)Oc1ccc2c(c1)c1c(OC(C)=O)c3ccccc3c(OC(C)=O)c1n2Cc1cccc(C)c1 | 29.3 µM (inactive) | 25.3 µM (inactive) | 24.9 µM (inactive) | 21.2 µM (inactive) | 28.4 µM (inactive) | 34.6 µM (inactive) | 38.7 µM (inactive) | 19.6 µM (inactive) | 33.3 µM (inactive) | 34.4 µM (inactive) | 48.6 µM (inactive) | 19.5 µM (inactive) |  | > 100 µM (inactive) | 18.5 µM (inactive) |  | 50.8 µM (inactive) |  | 20.4 µM (inactive) | 45.4 µM (inactive)
CN(C)c1cc2ccccc2oc1=O | > 100 µM (inactive) | > 100 µM (inactive) | > 100 µM (inactive) | > 100 µM (inactive) | > 100 µM (inactive) | > 100 µM (inactive) | > 100 µM (inactive) | > 100 µM (inactive) | > 100 µM (inactive) | > 100 µM (inactive) | > 100 µM (inactive) | > 100 µM (inactive) | > 100 µM (inactive) | > 100 µM (inactive) | > 100 µM (inactive) | > 100 µM (inactive) | > 100 µM (inactive) | > 100 µM (inactive) |  | > 100 µM (inactive)
C/C(=N\Nc1nc2ccccc2o1)c1cc2ccccc2cn1 | 15 µM (inactive) | 0.14 µM (active) | 0.237 µM (active) | < 0.01 µM (active) | 0.0346 µM (active) | < 0.01 µM (active) | < 0.0187 µM (active) | < 0.01 µM (active) | 0.0906 µM (active) | 0.225 µM (active) | < 0.01 µM (active) | 0.174 µM (active) | 0.0101 µM (active) | < 0.01 µM (active) | 0.476 µM (active) | < 0.01 µM (active) |  | < 0.01 µM (active) | 0.0474 µM (active) | 0.0775 µM (active)
C/C(=C\COP(=O)(O)OP(=O)(O)O)CC/C=C(\C)CNc1c(F)c(F)c(F)c(F)c1F |  | > 100 µM (inactive) | 31 µM (inactive) | > 86.3 µM (inactive) | > 100 µM (inactive) | > 100 µM (inactive) | > 100 µM (inactive) | > 100 µM (inactive) | > 100 µM (inactive) | > 100 µM (inactive) | > 64.3 µM (inactive) | > 52.8 µM (inactive) | > 100 µM (inactive) | > 56.1 µM (inactive) | 1.69 µM (inactive) | > 84.7 µM (inactive) | > 51.1 µM (inactive) | > 70.3 µM (inactive) | > 100 µM (inactive) | > 51.9 µM (inactive)
CC1=CC(=O)/C(=C/NC(=S)C(N)=S)C(=O)O1 |  | > 100 µM (inactive) | > 100 µM (inactive) | > 100 µM (inactive) | > 100 µM (inactive) | 16 µM (inactive) | > 100 µM (inactive) | > 100 µM (inactive) | > 100 µM (inactive) | > 100 µM (inactive) | > 100 µM (inactive) | > 100 µM (inactive) | > 100 µM (inactive) | > 100 µM (inactive) | 19 µM (inactive) | > 100 µM (inactive) | > 100 µM (inactive) | > 100 µM (inactive) | > 100 µM (inactive) | > 100 µM (inactive)
O=C1/C(=C/c2ccc(Cl)cc2)N=C(c2ccccc2)N1C1Nc2cc3c(cc2S1)NC(N1C(=O)/C(=C/c2ccc(Cl)cc2)N=C1c1ccccc1)S3 (configuration not stated) | > 100 µM (inactive) | 90.2 µM (inactive) | 35.2 µM (inactive) | 47.6 µM (inactive) | 54 µM (inactive) | 4.14 µM (inactive) | > 100 µM (inactive) | 18.7 µM (inactive) | 59.2 µM (inactive) | > 100 µM (inactive) | 39.1 µM (inactive) | 73.5 µM (inactive) | 34.2 µM (inactive) |  |  | 22 µM (inactive) | > 100 µM (inactive) | > 100 µM (inactive) | > 100 µM (inactive) | 
Cc1nc(O)nc2nc3ccc(Cl)cc3c(N(CCO)CCO)c12 | > 100 µM (inactive) | > 100 µM (inactive) | 10.7 µM (inactive) | > 100 µM (inactive) | 40 µM (inactive) | > 100 µM (inactive) | > 100 µM (inactive) | 24 µM (inactive) | 18.4 µM (inactive) | > 100 µM (inactive) | > 100 µM (inactive) | > 100 µM (inactive) | > 100 µM (inactive) | > 100 µM (inactive) |  | > 100 µM (inactive) | > 100 µM (inactive) | > 100 µM (inactive) | > 100 µM (inactive) | > 100 µM (inactive)
CCOC(=O)C(Cc1ccc(OC(=O)OC(C)(C)C)cc1)NC(=O)OC(C)(C)C (configuration not stated) |  | > 100 µM (inactive) | 47.5 µM (inactive) | 50.1 µM (inactive) | 70.6 µM (inactive) | 19.7 µM (inactive) | > 100 µM (inactive) | > 100 µM (inactive) | > 100 µM (inactive) | > 100 µM (inactive) | 37.4 µM (inactive) | > 100 µM (inactive) | > 100 µM (inactive) | 44.8 µM (inactive) | 17.1 µM (inactive) | 34.7 µM (inactive) | 71.1 µM (inactive) | 21.3 µM (inactive) | > 100 µM (inactive) | > 100 µM (inactive)
Cc1ccc(SCC(OCn2cnc3c(N)ncnc32)[C@H](C)F)cc1 (some centres not stated) |  | > 100 µM (inactive) | > 100 µM (inactive) | > 100 µM (inactive) | > 100 µM (inactive) | > 100 µM (inactive) | > 100 µM (inactive) | > 100 µM (inactive) | > 100 µM (inactive) | > 100 µM (inactive) | > 100 µM (inactive) | > 100 µM (inactive) | 41.4 µM (inactive) | > 100 µM (inactive) | > 100 µM (inactive) | > 100 µM (inactive) | > 100 µM (inactive) | > 100 µM (inactive) | > 100 µM (inactive) | > 100 µM (inactive)
C/C(=C/C(=O)Nn1c(Cc2ccccc2)n[nH]c1=O)C(=O)O |  | > 100 µM (inactive) | > 100 µM (inactive) | > 100 µM (inactive) | > 100 µM (inactive) | > 100 µM (inactive) | > 100 µM (inactive) | > 100 µM (inactive) | > 100 µM (inactive) | > 100 µM (inactive) | > 100 µM (inactive) | > 100 µM (inactive) | > 100 µM (inactive) | > 100 µM (inactive) | > 100 µM (inactive) | > 100 µM (inactive) | > 100 µM (inactive) | > 100 µM (inactive) | > 100 µM (inactive) | > 100 µM (inactive)
OCC1(CNc2cc(Cl)ncn2)CCC1 | > 100 µM (inactive) | > 100 µM (inactive) | > 100 µM (inactive) | > 100 µM (inactive) | > 100 µM (inactive) | > 100 µM (inactive) | > 100 µM (inactive) | > 100 µM (inactive) | > 100 µM (inactive) | > 100 µM (inactive) | > 100 µM (inactive) | > 100 µM (inactive) | > 100 µM (inactive) | > 100 µM (inactive) | > 100 µM (inactive) | > 100 µM (inactive) | > 100 µM (inactive) | > 100 µM (inactive) |  | 
CC1(C)CC2C(=O)c3ccccc3NC2c2ccccc21 (configuration not stated) | 6.21 µM (inactive) | 3.75 µM (inactive) | 2.87 µM (inactive) | 7.13 µM (inactive) | 4.3 µM (inactive) | 0.735 µM (active) | 4.98 µM (inactive) | 1.53 µM (inactive) | 57 µM (inactive) | > 26.2 µM (inactive) | 5.96 µM (inactive) | 1.84 µM (inactive) | 3.5 µM (inactive) | 5.79 µM (inactive) | 4.18 µM (inactive) | 3.9 µM (inactive) | 12 µM (inactive) | 40.4 µM (inactive) |  | 3.9 µM (inactive)
O=C(c1ccccc1)C1C(c2ccccc2[N+](=O)[O-])N1C1CCCCC1 (configuration not stated) | 16.7 µM (inactive) | 15.1 µM (inactive) | 10.3 µM (inactive) | 4.25 µM (inactive) | 11.9 µM (inactive) | 2.43 µM (inactive) | 16.4 µM (inactive) | 2.11 µM (inactive) | 9.33 µM (inactive) | 17 µM (inactive) | 1.86 µM (inactive) | 15.4 µM (inactive) | 11 µM (inactive) | 4.39 µM (inactive) |  |  | 2.74 µM (inactive) | 3.21 µM (inactive) | 22.1 µM (inactive) | 7.4 µM (inactive)
